# Paper PMC6801902, “Directed Evolution of Clostridium thermocellum β-Glucosidase A Towards Enhanced Thermostability” (International Journal of Molecular Sciences, 2019)
# Legend:
# [1] = target: C. thermocellum BglA (β-glucosidase A, Clo1313_2020) (Acetivibrio thermocellus, UniProt P26208); test: continuous p-nitrophenol release at OD405, nonlinear fit (GraphPad Prism); format: biochemical; settings: 50 mM citrate buffer pH 6.1, 60 °C, 0-25 mM pNPG, 13 nM enzyme; read-out: Wild Type
# Text: (§1) continuous p-nitrophenol release at OD405, nonlinear fit (GraphPad Prism) on C. thermocellum BglA (β-glucosidase A, Clo1313_2020)
# [2] = target: C. thermocellum BglA (β-glucosidase A, Clo1313_2020) (Acetivibrio thermocellus, UniProt P26208, A17S/K268N, form not given); test: as above; format: biochemical; settings: 50 mM citrate buffer pH 6.1, 60 °C, 0-25 mM pNPG, 13 nM enzyme; thermostable mutant Mut 1
# Sequence of C. thermocellum BglA (β-glucosidase A, Clo1313_2020) (Acetivibrio thermocellus, UniProt P26208, A17S/K268N, form not given) (P26208 whole entry A17S/K268N, form open): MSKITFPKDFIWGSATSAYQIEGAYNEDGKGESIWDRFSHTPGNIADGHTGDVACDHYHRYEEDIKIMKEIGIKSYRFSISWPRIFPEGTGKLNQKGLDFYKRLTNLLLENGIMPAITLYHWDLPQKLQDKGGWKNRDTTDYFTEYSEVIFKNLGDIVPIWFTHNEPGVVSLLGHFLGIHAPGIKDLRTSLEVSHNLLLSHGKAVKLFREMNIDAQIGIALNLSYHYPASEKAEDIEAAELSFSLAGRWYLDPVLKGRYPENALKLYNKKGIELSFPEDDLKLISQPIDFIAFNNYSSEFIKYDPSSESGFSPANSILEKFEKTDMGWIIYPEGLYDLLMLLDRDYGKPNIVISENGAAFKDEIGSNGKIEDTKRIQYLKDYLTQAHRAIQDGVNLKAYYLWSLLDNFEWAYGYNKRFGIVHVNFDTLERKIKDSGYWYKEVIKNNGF
# Text: as §1
# Sequence of C. thermocellum BglA (β-glucosidase A, Clo1313_2020) (Acetivibrio thermocellus, UniProt P26208) (P26208 whole entry): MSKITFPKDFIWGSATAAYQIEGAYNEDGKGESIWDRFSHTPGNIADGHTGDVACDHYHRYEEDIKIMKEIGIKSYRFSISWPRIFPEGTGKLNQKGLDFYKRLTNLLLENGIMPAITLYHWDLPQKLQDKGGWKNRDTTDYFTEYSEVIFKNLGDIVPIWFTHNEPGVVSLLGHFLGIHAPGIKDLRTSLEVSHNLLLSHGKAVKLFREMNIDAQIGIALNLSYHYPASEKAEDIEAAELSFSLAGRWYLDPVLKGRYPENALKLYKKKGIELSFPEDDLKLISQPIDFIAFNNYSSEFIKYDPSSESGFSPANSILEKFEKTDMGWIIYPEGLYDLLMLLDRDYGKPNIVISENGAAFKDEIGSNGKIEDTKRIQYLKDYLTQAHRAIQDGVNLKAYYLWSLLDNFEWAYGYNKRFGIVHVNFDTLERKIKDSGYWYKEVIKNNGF
smiles,measurement,setting,value
"O=[N+]([O-])c1ccc(O[C@@H]2O[C@H](CO)[C@@H](O)[C@H](O)[C@H]2O)cc1 [pNPG, p-nitrophenyl-β-D-glucopyranoside]",Km,[1],6.7 ± 1.11 mM
same,Km,[2],5 ± 0.59 mM
